In PubChem BioAssay (NCI):
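Method: 48-hour compound exposure of cells in 96-well plates, five concentrations, linear interpolation of endpoints. GI50: concentration for 50% inhibition of growth. TGI marks complete inhibition of growth.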

How the values were obtained:
Assay in all cases: NCI anticancer screen, dose series, 48 h
MDA-MB-231 breast = test system: MDA-MB-231 breast
U251 CNS = test system: U251 CNS
COLO 205 colon = test system: COLO 205 colon
UACC-257 melanoma = test system: UACC-257 melanoma
PC-3 prostate = test system: PC-3 prostate
UO-31 renal = test system: UO-31 renal
NCI-H460 lung = test system: NCI-H460 lung
CCRF-CEM leukemia = test system: CCRF-CEM leukemia
SN12C renal = test system: SN12C renal
LOX IMVI melanoma = test system: LOX IMVI melanoma
HL-60(TB) leukemia = test system: HL-60(TB) leukemia
NCI-H23 lung = test system: NCI-H23 lung
IGROV1 ovarian = test system: IGROV1 ovarian
ACHN renal = test system: ACHN renal
OVCAR-3 ovarian = test system: OVCAR-3 ovarian
M14 melanoma = test system: M14 melanoma
CAKI-1 renal = test system: CAKI-1 renal
RPMI-8226 leukemia = test system: RPMI-8226 leukemia
UACC-62 melanoma = test system: UACC-62 melanoma
NCI-H226 lung = test system: NCI-H226 lung
DU-145 prostate = test system: DU-145 prostate
A549 NSCLC = test system: A549 NSCLC
SK-OV-3 ovarian = test system: SK-OV-3 ovarian
SF-268 CNS = test system: SF-268 CNS
SF-539 CNS = test system: SF-539 CNS
KM12 colon = test system: KM12 colon
NCI-H522 lung = test system: NCI-H522 lung
HCT-116 colon = test system: HCT-116 colon
RXF 393 renal = test system: RXF 393 renal
SK-MEL-28 melanoma = test system: SK-MEL-28 melanoma
SF-295 CNS = test system: SF-295 CNS
OVCAR-4 ovarian = test system: OVCAR-4 ovarian
MCF7 breast = test system: MCF7 breast
T-47D breast = test system: T-47D breast
A498 renal = test system: A498 renal
MOLT-4 leukemia = test system: MOLT-4 leukemia
OVCAR-5 ovarian = test system: OVCAR-5 ovarian
SNB-75 CNS = test system: SNB-75 CNS
SW-620 colon = test system: SW-620 colon
K-562 leukemia = test system: K-562 leukemia
HOP-62 NSCLC = test system: HOP-62 NSCLC
SNB-19 CNS = test system: SNB-19 CNS
SK-MEL-5 melanoma = test system: SK-MEL-5 melanoma
TK-10 renal = test system: TK-10 renal
HS 578T breast = test system: HS 578T breast
BT-549 breast = test system: BT-549 breast
NCI/ADR-RES ovarian = test system: NCI/ADR-RES ovarian
HCT-15 colon = test system: HCT-15 colon
MDA-MB-435 = test system: MDA-MB-435
HT29 colon = test system: HT29 colon
EKVX NSCLC = test system: EKVX NSCLC
OVCAR-8 ovarian = test system: OVCAR-8 ovarian
MALME-3M melanoma = test system: MALME-3M melanoma
HOP-92 NSCLC = test system: HOP-92 NSCLC
SK-MEL-2 melanoma = test system: SK-MEL-2 melanoma
786-0 renal = test system: 786-0 renal
HCC-2998 colon = test system: HCC-2998 colon

**Q.** Which results are given for `COc1ccc(C(=O)/C=C/c2sc(Cl)nc2Cl)cc1`?
**A.** GI50 (MDA-MB-231 breast): 1.33 µM; TGI (MDA-MB-231 breast): 4.64 µM; GI50 (U251 CNS): 1.68 µM; TGI (U251 CNS): 3.83 µM; GI50 (COLO 205 colon): 2.28 µM; TGI (COLO 205 colon): 6.74 µM; GI50 (UACC-257 melanoma): 3.26 µM; TGI (UACC-257 melanoma): 12.7 µM; GI50 (PC-3 prostate): 2.83 µM; TGI (PC-3 prostate): 11.6 µM; GI50 (UO-31 renal): 1.45 µM; TGI (UO-31 renal): 2.9 µM; GI50 (NCI-H460 lung): 3.17 µM; TGI (NCI-H460 lung): 10.6 µM; GI50 (CCRF-CEM leukemia): 0.267 µM; TGI (CCRF-CEM leukemia): 14.7 µM; GI50 (SN12C renal): 0.408 µM; TGI (SN12C renal): 3.19 µM; GI50 (LOX IMVI melanoma): 0.33 µM; TGI (LOX IMVI melanoma): 1.36 µM; GI50 (HL-60(TB) leukemia): 1.95 µM; TGI (HL-60(TB) leukemia): 4.63 µM; GI50 (NCI-H23 lung): 0.973 µM; TGI (NCI-H23 lung): 3.39 µM; GI50 (IGROV1 ovarian): 0.368 µM; TGI (IGROV1 ovarian): 1.91 µM; GI50 (ACHN renal): 1.66 µM; TGI (ACHN renal): 3.05 µM; GI50 (OVCAR-3 ovarian): 1.84 µM; TGI (OVCAR-3 ovarian): 3.48 µM; GI50 (M14 melanoma): 0.466 µM; TGI (M14 melanoma): 2.96 µM; GI50 (CAKI-1 renal): 1.7 µM; TGI (CAKI-1 renal): 5.45 µM; GI50 (RPMI-8226 leukemia): 1.36 µM; TGI (RPMI-8226 leukemia): 4.77 µM; GI50 (UACC-62 melanoma): 2.22 µM; TGI (UACC-62 melanoma): 6.19 µM; GI50 (NCI-H226 lung): 0.655 µM; TGI (NCI-H226 lung): 17.8 µM; GI50 (DU-145 prostate): 1.9 µM; TGI (DU-145 prostate): 3.55 µM; GI50 (A549 NSCLC): 3.72 µM; TGI (A549 NSCLC): 19.5 µM; GI50 (SK-OV-3 ovarian): 7.68 µM; TGI (SK-OV-3 ovarian): 23.7 µM; GI50 (SF-268 CNS): 3.23 µM; TGI (SF-268 CNS): 16.4 µM; GI50 (SF-539 CNS): 1.56 µM; TGI (SF-539 CNS): 4.26 µM; GI50 (KM12 colon): 2.75 µM; TGI (KM12 colon): 7.54 µM; GI50 (NCI-H522 lung): 0.452 µM; TGI (NCI-H522 lung): 4.85 µM; GI50 (HCT-116 colon): 0.49 µM; TGI (HCT-116 colon): 1.84 µM; GI50 (RXF 393 renal): 1.28 µM; TGI (RXF 393 renal): 3.02 µM; GI50 (SK-MEL-28 melanoma): 2.57 µM; TGI (SK-MEL-28 melanoma): 8.17 µM; GI50 (SF-295 CNS): 3.07 µM; TGI (SF-295 CNS): 11.7 µM; GI50 (OVCAR-4 ovarian): 7.28 µM; TGI (OVCAR-4 ovarian): 20.2 µM; GI50 (MCF7 breast): 1.75 µM; TGI (MCF7 breast): 4 µM; GI50 (T-47D breast): 2.93 µM; TGI (T-47D breast): 9.23 µM; GI50 (A498 renal): 4.67 µM; TGI (A498 renal): 20.2 µM; GI50 (MOLT-4 leukemia): 0.369 µM; TGI (MOLT-4 leukemia): 13.6 µM; GI50 (OVCAR-5 ovarian): 3.01 µM; TGI (OVCAR-5 ovarian): 13.3 µM; GI50 (SNB-75 CNS): 2.56 µM; TGI (SNB-75 CNS): 8.29 µM; GI50 (SW-620 colon): 0.613 µM; TGI (SW-620 colon): 2.79 µM; GI50 (K-562 leukemia): 0.328 µM; TGI (K-562 leukemia): > 100 µM; GI50 (HOP-62 NSCLC): 4.59 µM; TGI (HOP-62 NSCLC): 21.2 µM; GI50 (SNB-19 CNS): 1.99 µM; TGI (SNB-19 CNS): 4.25 µM; GI50 (SK-MEL-5 melanoma): 1.53 µM; TGI (SK-MEL-5 melanoma): 4.15 µM; GI50 (TK-10 renal): 4.57 µM; TGI (TK-10 renal): 30.3 µM; GI50 (HS 578T breast): 3.29 µM; TGI (HS 578T breast): 18.6 µM; GI50 (BT-549 breast): 0.332 µM; TGI (BT-549 breast): 1.7 µM; GI50 (NCI/ADR-RES ovarian): 2.55 µM; TGI (NCI/ADR-RES ovarian): 10.2 µM; GI50 (HCT-15 colon): 0.416 µM; TGI (HCT-15 colon): 2.14 µM; GI50 (MDA-MB-435): 3.11 µM; TGI (MDA-MB-435): 11.4 µM; GI50 (HT29 colon): 1.89 µM; TGI (HT29 colon): 4.66 µM; GI50 (EKVX NSCLC): 3.67 µM; TGI (EKVX NSCLC): 14.8 µM; GI50 (OVCAR-8 ovarian): 1.05 µM; TGI (OVCAR-8 ovarian): 13.9 µM; GI50 (MALME-3M melanoma): 0.805 µM; TGI (MALME-3M melanoma): 3.33 µM; GI50 (HOP-92 NSCLC): 4.06 µM; TGI (HOP-92 NSCLC): 18 µM; GI50 (SK-MEL-2 melanoma): 11.1 µM; TGI (SK-MEL-2 melanoma): 35.5 µM; GI50 (786-0 renal): 1.94 µM; TGI (786-0 renal): 4.94 µM; GI50 (HCC-2998 colon): 1.72 µM; TGI (HCC-2998 colon): 3.31 µM
